Measured values as given in patent publication US10154957B2, “Microneedle device having a peptide therapeutic agent and an amino acid and methods of making and using the same” (3M INNOVATIVE PROPERTIES COMPANY, priority 2011, dated 2018).

Assay: Percent purity of PTHrP analogue (20 mg/mL formulations) in coating on flood-coated arrays stored at 40° C./96% RH (HPLC)
Format: physicochemical
Conditions: peptide 20 mg/mL in PBS
Protocol: The protein or polypeptide content in the formulation coated on the microneedle arrays was determined using an Agilent 1100 HPLC system (Agilent Technologies, Wilmington, Del.) equipped with a binary pump, well-plated thermostated autosampler, thermostated column compartment, and a diode array UV detector. A Zorbax 300SB-C8 column (Agilent Technologies, Wilmington, Del.) having a 5 μm particle size and 2.1×150 mm inner diameter was used for the separations. The column was maintained at 50° C. The mobile phase consisted of two eluents. Eluent A was 0.1% TFA (trifluoroacetic acid) in water and eluent B was 0.1% TFA in acetonitrile (Spectrum Chemical, New Brunswick, N.J.). A linear gradient from 80/20 to 50/50 (A/B) was applied over 30 minutes. The flow rate was 0.4 mL/minute and the UV detection wavelength was set at 214 nm. The total run time was 34 minutes and the sample injection volume was 15 μL.
A sample formulation containing 20 mg/mL of [Glu^22,25,Leu^23,28,31,Aib^29,Lys^26,30]hPTHrP(1-34)NH2 and 20 mg/mL of L-histidine monohydrochloride (His-HCl) in PBS was prepared. A control formulation was also prepared containing 20 mg/mL of [Glu^22,25,Leu^23,28,31,Aib^29,Lys^26,30]hPTHrP(1-34)NH2 in PBS. […] Microneedle arrays were coated with either the sample or the control formulation. The coating was applied by dropwise addition of 50 μL of the formulation to the portion of the array defined by the octagon shaped pattern of microneedles. The flood coated arrays (both sample and control formulation coated) were dried in an oven at 35° C. for 2 hours followed by 30° C. for 15 hours.
After drying, the coated arrays were placed in a storage chamber that was maintained at 40° C. and 96% relative humidity (RH). The [Glu^22,25,Leu^23,28,31,Aib^29,Lys^26,30]hPTHrP(1-34)NH2 content of the coated arrays was determined following storage in the chamber for 1, 3, and 7 days. The initial [Glu^22,25,Leu^23,28,31,Aib^29,Lys^26,30]hPTHrP(1-34)NH2 content was also determined using freshly coated arrays (both sample and control formulation coated). The arrays used to determine initial content were stored in a refrigerator at about 4° C. and analyzed within one day of being prepared. At the designated time point, an array was taken from the chamber and washed with 0.1 N acetic acid (20 mL) to remove the formulation from the array. The resulting wash solution was analyzed for [Glu^22,25,Leu^23,28,31,Aib^29,Lys^26,30]hPTHrP(1-34)NH2 content using the HPLC method described above. The results were quantified against an external standard of [Glu^22,25,Leu^23,28,31,Aib^29,Lys^26,30]hPTHrP(1-34)NH2. At each time point, the percent purity of [Glu^22,25,Leu^23,28,31,Aib^29,Lys^26,30]hPTHrP(1-34)NH2 in the coating was determined by measuring the peak area for [Glu^22,25,Leu^23,28,31,Aib^29,Lys^26,30]hPTHrP(1-34)NH2 in the selected coating and dividing it by the total peak area measured for all [Glu^22,25,Leu^23,28,31,Aib^29,Lys^26,30]hPTHrP(1-34)NH2 related peaks.
The same procedure as described in Example 9 was used with the exception that the sample formulation contained 20 mg/mL of L-arginine hydrochloride, instead of L-histidine monohydrochloride.

In the case of “[Glu^22,25,Leu^23,28,31,Aib^29,Lys^26,30]hPTHrP(1-34)NH2”, the “Percent Purity of [Glu^22,25, Leu^23,28,31, Aib^29, Lys^26,30]hPTHrP(1-34)NH2” value (“Percent Purity” for short) (Amino Acid L-Arginine (Arg-HCl 20 mg/mL), Day 1 at 40° C./96% RH) is reported as 88.4%, the “Percent Purity” value (Amino Acid L-Arginine (Arg-HCl 20 mg/mL), Day 3 at 40° C./96% RH) is reported as 76.1% and the “Percent Purity” value (Amino Acid L-Arginine (Arg-HCl 20 mg/mL), Day 7 at 40° C./96% RH) is reported as 46.4%. The “Percent Purity” value (Amino Acid L-Arginine (Arg-HCl 20 mg/mL), Initial) was 99.0%, the “Percent Purity” value (Amino Acid L-Histidine (His-HCl 20 mg/mL), Day 1 at 40° C./96% RH) was 99.3% and the “Percent Purity” value (Amino Acid L-Histidine (His-HCl 20 mg/mL), Day 3 at 40° C./96% RH) was 98.9%. For the same substance, the “Percent Purity” value (Amino Acid L-Histidine (His-HCl 20 mg/mL), Day 7 at 40° C./96% RH) was 97.9%, the “Percent Purity” value (Amino Acid L-Histidine (His-HCl 20 mg/mL), Initial) was 99.4% and the “Percent Purity” value (Amino Acid None (control), Day 1 at 40° C./96% RH) was 85.6%. For the same substance, the “Percent Purity” value (Amino Acid None (control), Day 3 at 40° C./96% RH) was 53.1%, the “Percent Purity” value (Amino Acid None (control), Day 7 at 40° C./96% RH) was 21.1% and the “Percent Purity” value (Amino Acid None (control), Initial) was 98.9%.
